Reference: article PMC9406419, “OATD-02 Validates the Benefits of Pharmacological Inhibition of Arginase 1 and 2 in Cancer” (Cancers, 2022)
Where two headings read alike, the source gives them in different places.

Assays:
[1] = molecular target: intracellular arginase in human primary hepatocytes; experiment: Liver arginase inhibition assay in human primary hepatocytes (urea in supernatant); type: cell-based; conditions: 24 h incubation, 5 mM L-arginine
[2] = test system: intracellular arginase in murine M2-polarized BMDMs; experiment: Cell-based arginase inhibition assay in murine M2-polarized bone marrow-derived macrophages (urea in supernatant); parameters: species or system mouse; conditions: 24 h incubation, 5 mM L-arginine, read-out: IC50, intracellular activity towards arginase-expressing immune cells
Protocol: The intracellular activity of OATD-02 arginase inhibitor was determined using murine M2-polarized macrophages. Bone marrow cells were collected from femur bones of C57BL/6 male mice. The cells suspended in DMEM medium (ThermoFisher, Waltham, MA, USA) supplemented with 5% FBS and 50 ng/mL M-CSF (PeproTech, Rocky Hill, NJ, USA) were poured through a 40 µm cell strainer and seeded into Petri dishes at 1 × 10^6 cells/mL for 2 days (37 °C, 5% CO2). Next, nonadherent cells were removed and fresh medium was added (DMEM, 5% FCS, 50 ng/mL M-CSF). The next day, the cells were dissociated using the CellStripper Dissociation Reagent (Corning, New York, NY, USA) and resuspended in the fresh DMEM medium containing 5% FCS, 50 ng/mL M-CSF, 20 ng/mL TGF-ß, and 30 ng/mL IL-4 (Biomibo, Warszawa, Poland). The cells were seeded into 96-well plates (64 × 10^3 cells/100 µL/well). […] Following 24 h incubation (37 °C, 5% CO2), the generated urea was detected by mixing 50 µL of the supernatant with 75 µL of the developing reagent (as described in the above section). Normalized absorbance values (515 nm) were fitted to a four-parameter equation using GraphPad Prism and IC50 values were determined. […] Normalized absorbance values (515 nm) were fitted to a four-parameter equation using GraphPad Prism and IC50 values were determined. […]

CT26 tumours = experiment: Syngeneic CT26 colorectal carcinoma model, monotherapy, with plasma/tumour bioanalytics; type: in vivo, mouse; conditions: for final TGI (tumour growth inhibition): CT26 in BALB/c mice, 100 mg/kg, PO, BID from day 1 post-inoculation
Protocol: CT26 and K562 in vivo experiments were conducted at Molecure SA. All experimental procedures were approved by the 1st Local Ethics Committee in Warsaw (Poland). For the syngeneic CT26 model, 7–8-week old BALB/c females (n = 9–18 per group, BALB/cAnNCrl, Charles River Laboratories) were injected subcutaneously in the right flank with 5 × 10^5 CT26 cells. […] Anti-PD-L1 antibody (InVivoPlus anti-mouse PD-L1, clone 10F.9G2, BioXCell, lot 615416D1) was injected intraperitoneally at 2.5 mg/kg on days: 8, 10, 12, 14 and 16 post tumour cells inoculation. Control groups received vehicle (saline) or isotype antibody (InVivoPlus rat IgG2b, anti-KLH, BioXCell, lot 629816D1). For the xenograft K562 model, 7–8 week-old athymic nude mice (n = 8–11 per group, Crl:NU(NCr)-Foxn1^nu, Charles River Laboratories) or NK cell-deficient Fox Chase SCID Beige mice (n = 10–12 per group, CB17.Cg-Prkdc^scidLyst^bg-J/Crl, Charles River Laboratories) were injected subcutaneously in the right flank with 1 × 10^7 K562 cells. […] Tumour volume measured by a digital calliper (width × length × depth × π/6) was recorded three times per week. Animals were euthanized when tumours were necrotized or volume exceeded 2000 mm^3. Renca in vivo efficacy study was performed at Crown Biosciences Inc. (Taicang, China). All experimental procedures on animals were approved by the Institutional Animal Care and Use Committee (IACUC) and conducted in accordance with the regulations of the Association for Assessment and Accreditation of Laboratory Animal Care (AAALAC). For the syngeneic Renca model, 6–7 week-old BALB/c females (n = 12 per group, Shanghai Lingchang Biotechnology, Shanghai, China) were injected subcutaneously in the right flank with 1 × 10^6 Renca cells. Tumour volumes (length × width^2 × 0.5) were measured twice per week. OATD-02 was dosed twice per day at 75 mg/kg by oral gavage. A dosing holiday was given to individuals with bodyweight loss exceeding 15% of the initial body weight and the treatment was resumed when the bodyweight loss recovered to less than 10%. Due to the cachexic nature of the Renca model, all animals were supplemented with DietGel to help maintain their body weight.
The concentrations of OATD-02, the reference ARGi or L-arginine were determined in plasma samples or tumour homogenates using liquid chromatography coupled with tandem mass spectrometry (LC-MS/MS). Sample preparation was based on protein precipitation using acetonitrile. The resulting supernatants were analysed using hydrophilic interaction liquid chromatography (HILIC) with subsequent MS detection based on optimised MRM transitions. Matrix-matched calibration and quality control samples were prepared for quantification of OATD-02 and the reference ARGi. Due to the endogenous character of L-arginine, a surrogate matrix was used for its detection.
All statistical analyses were performed using GraphPad Prism (ver. 9, GraphPad Software, Inc., San Diego, CA, USA). Data sets with normal distribution were described as means with SEM (standard error of the mean). Otherwise, the median value was shown and the U Mann–Whitney or the Kruskal–Wallis tests were applied for intergroup comparisons. Differences at p-value less than 0.05 were considered statistically significant. TGI (tumour growth inhibition) index was calculated by the formula: (1 − A/B) × 100%, where A is the tumour volume in the treated group and B is the volume in the control group. […]

K562 tumours = experiment: K562 xenograft model in athymic nude mice; type: in vivo, mouse
Protocol: CT26 and K562 in vivo experiments were conducted at Molecure SA. All experimental procedures were approved by the 1st Local Ethics Committee in Warsaw (Poland). For the syngeneic CT26 model, 7–8-week old BALB/c females (n = 9–18 per group, BALB/cAnNCrl, Charles River Laboratories) were injected subcutaneously in the right flank with 5 × 10^5 CT26 cells. […] Anti-PD-L1 antibody (InVivoPlus anti-mouse PD-L1, clone 10F.9G2, BioXCell, lot 615416D1) was injected intraperitoneally at 2.5 mg/kg on days: 8, 10, 12, 14 and 16 post tumour cells inoculation. Control groups received vehicle (saline) or isotype antibody (InVivoPlus rat IgG2b, anti-KLH, BioXCell, lot 629816D1). For the xenograft K562 model, 7–8 week-old athymic nude mice (n = 8–11 per group, Crl:NU(NCr)-Foxn1^nu, Charles River Laboratories) or NK cell-deficient Fox Chase SCID Beige mice (n = 10–12 per group, CB17.Cg-Prkdc^scidLyst^bg-J/Crl, Charles River Laboratories) were injected subcutaneously in the right flank with 1 × 10^7 K562 cells. […] Tumour volume measured by a digital calliper (width × length × depth × π/6) was recorded three times per week. Animals were euthanized when tumours were necrotized or volume exceeded 2000 mm^3. Renca in vivo efficacy study was performed at Crown Biosciences Inc. (Taicang, China). […] Tumour volumes (length × width^2 × 0.5) were measured twice per week. […]

CN(C)C[C@@H]1CC[C@@H](CCB(O)O)C[C@]1(N)C(=O)O [OATD-02]
IC50 [1]: 14.2 µM
IC50 [2]: 1.1 µM
fold change of endogenous plasma L-arginine (CT26 tumours; CT26-bearing mice, 100 mg/kg PO BID, 6 h after the last dosing): up to 6.7 fold
final TGI (tumour growth inhibition) (CT26 tumours): 48%
fold change of L-arginine in tumour homogenates (CT26 tumours; CT26 tumours, 100 mg/kg PO BID, within the first 6 h post-dosing): up to 6.9 fold
final TGI, K562 tumor volumes, athymic nude mice (K562 tumours; 50 mg/kg PO BID from day 6, day 19 post-inoculation): 49%

C[C@H](N)C(=O)N1C[C@H](CCCB(O)O)[C@](N)(C(=O)O)C1 [ref. ARGi, numidargistat, reference compound]
IC50 ([1]; Hepatocyte): 50.1 µM
IC50 ([2]; Mus musculus, BMDM): 56.2 µM
oral bioavailability (plasma concentrations, compared between the two inhibitors) (CT26 tumours; CT26-bearing mice, 100 mg/kg PO BID, Figure 2B): higher oral bioavailability
final TGI (tumour growth inhibition) (CT26 tumours): 28%
final TGI, K562 tumor volumes, athymic nude mice (K562 tumours; 100 mg/kg PO BID (Figure 5 legend) from day 6, day 19 post-inoculation): 14%
